Values quoted from earlier work in patent publication US20130131091A1, “HARMFUL ORGANISM CONTROL AGENT” (priority 2010, published 2013).

Legend:
[1] = system: larvae of Helicoverpa zea
[2] = system: Plutella xylostella L larvae

Measured: insecticidal activity

CC(=O)OCC1(C)C(OC(C)=O)CCC2(C)C1CC(OC(C)=O)C1(C)Oc3cc(-c4cccnc4)oc(=O)c3C(O)C21 (stereo not drawn) [pyripyropene A]
insecticidal activity: [1] | [2] | Tenebrio molitor L
